The values that follow come from PMC4139061, “Structural basis of nucleoside and nucleoside drug selectivity by concentrative nucleoside transporters” (eLife, 2014).

Holding throughout (assay type): cell-based
The target in one experiment is T1, hCNT3 (Homo sapiens, UniProt Q9HAS3).
T1 sequence (Q9HAS3 1-691): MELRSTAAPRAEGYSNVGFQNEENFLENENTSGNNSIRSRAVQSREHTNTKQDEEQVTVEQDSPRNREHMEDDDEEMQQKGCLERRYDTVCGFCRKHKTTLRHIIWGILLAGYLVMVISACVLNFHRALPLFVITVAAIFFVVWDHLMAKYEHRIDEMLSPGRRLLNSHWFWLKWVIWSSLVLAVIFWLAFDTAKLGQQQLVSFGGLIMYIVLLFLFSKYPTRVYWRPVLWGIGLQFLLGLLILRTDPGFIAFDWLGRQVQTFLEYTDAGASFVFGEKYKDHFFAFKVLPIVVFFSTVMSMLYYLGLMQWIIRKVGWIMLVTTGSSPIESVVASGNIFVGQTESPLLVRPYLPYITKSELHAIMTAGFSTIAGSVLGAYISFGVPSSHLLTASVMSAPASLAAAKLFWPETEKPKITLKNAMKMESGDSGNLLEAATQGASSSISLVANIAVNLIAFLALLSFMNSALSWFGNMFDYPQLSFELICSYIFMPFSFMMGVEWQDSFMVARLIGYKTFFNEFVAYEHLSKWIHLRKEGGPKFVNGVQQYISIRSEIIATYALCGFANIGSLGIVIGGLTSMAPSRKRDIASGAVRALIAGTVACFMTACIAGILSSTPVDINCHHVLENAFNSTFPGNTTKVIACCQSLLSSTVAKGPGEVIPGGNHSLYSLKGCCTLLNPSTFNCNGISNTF
Nature of the experiment: two-electrode voltage-clamp of Na+ currents / total charge in Xenopus oocytes expressing hCNT3. The source says:
(§1) To detect nucleoside transport by hCNTs, we turned to two-electrode voltage-clamp electrophysiological recording. Because hCNTs are Na^+-nucleoside symporters, one can measure the current generated by the Na^+ transport that is coupled with nucleoside transport. We injected Xenopus oocytes with mRNA coding for each of the hCNTs and measured inward Na^+ currents elicited by the addition of different nucleosides to the extracellular side.
(§2) The genes coding for the three hCNTs and vcCNT were cloned into a pGEM-HE vector. Plasmids were linearized using either SphI or NheI, and mRNA was transcribed using the mMESSAGE mMACHINE T7 Transcription Kit (Ambion, Grand Island, NY). Defolliculated Xenopus laevis oocytes were purchased from Ecocyte Bioscience (Austin, TX). Individual oocytes were injected with 40 ng of mRNA using a 10-μl microdispenser (Drummond Scientific, Broomall, PA) fitted with a tapered glass pipette tip and incubated at 17 °C for 4–5 days in ND96 buffer (96 mM NaCl, 2 mM KCl, 1 mM MgCl2, 1.8 mM CaCl2, and 5 mM HEPES pH 7.5) with 0.1% penicillin and streptomycin before recording.
The oocyte-recording chamber was gravity-perfused with ND96 buffer at a rate of 2 ml/min. Membrane currents were measured using an Oocyte Clamp (OC-725C; Warner Instruments, Hamden, CT). Individual oocytes were penetrated with two microelectrodes filled with 3 M KCl (0.5–1.0 MΩ). All electrophysiological experiments were conducted at room temperature. The OC-725C Oocyte Clamp was computer-interfaced via an Axon Digidata 1550 and controlled by Axoscope software (Molecular Devices, Sunnyvale, CA). The current signals were filtered at 20 Hz and sampled at intervals of 20 ms. The signals were filtered at 0.5 Hz by use of pCLAMP 10.4 software for data presentation. […] Cells were discarded if resting membrane potentials were unstable or more positive than −30 mV. Oocyte membrane potentials were clamped at −90 mV for holding potentials to measure transporter-generated currents. All data are shown as means ± SEM.
(In general: Two-electrode voltage clamp is typically applied to oocytes expressing channels or transporters.)

The target of the next experiment is hCNT2 (Homo sapiens, UniProt O43868). Description: two-electrode voltage-clamp of Na+ currents in Xenopus oocytes expressing hCNT2. The conditions noted are these: data not shown.
Sequence of hCNT2 (O43868 whole entry): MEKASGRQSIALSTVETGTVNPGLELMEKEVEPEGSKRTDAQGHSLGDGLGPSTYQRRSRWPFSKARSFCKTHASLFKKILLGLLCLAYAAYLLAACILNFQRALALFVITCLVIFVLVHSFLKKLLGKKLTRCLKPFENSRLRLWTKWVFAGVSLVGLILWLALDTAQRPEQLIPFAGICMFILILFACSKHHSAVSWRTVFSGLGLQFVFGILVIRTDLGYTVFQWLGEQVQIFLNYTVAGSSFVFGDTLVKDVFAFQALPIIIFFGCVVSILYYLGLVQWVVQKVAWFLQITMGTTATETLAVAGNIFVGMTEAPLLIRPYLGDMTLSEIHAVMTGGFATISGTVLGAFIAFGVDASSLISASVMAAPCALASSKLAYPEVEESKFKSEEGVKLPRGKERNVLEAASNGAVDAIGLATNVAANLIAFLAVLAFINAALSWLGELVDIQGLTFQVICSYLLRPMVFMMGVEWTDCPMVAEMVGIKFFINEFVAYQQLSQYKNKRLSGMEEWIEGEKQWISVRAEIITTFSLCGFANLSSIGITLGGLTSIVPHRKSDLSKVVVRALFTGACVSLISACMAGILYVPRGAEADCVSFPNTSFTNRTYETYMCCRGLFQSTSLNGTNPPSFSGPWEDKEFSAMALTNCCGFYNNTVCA
Source text: as §1, §2
The oocyte-recording chamber was gravity-perfused with ND96 buffer at a rate of 2 ml/min. Membrane currents were measured using an Oocyte Clamp (OC-725C; Warner Instruments, Hamden, CT). Individual oocytes were penetrated with two microelectrodes filled with 3 M KCl (0.5–1.0 MΩ). […]

A further experiment has as its target hCNT3 (375L/446V) (Homo sapiens, UniProt Q9HAS3, L446V/V375L). Nature of the experiment: two-electrode voltage-clamp total charge in Xenopus oocytes expressing hCNT3 (375L/446V). The conditions noted are these: mean of Exp. 1-11. The source says: In the paradigm of the alternating-access mechanism of sodium-coupled symporters ([Krishnamurthy et al., 2009]), substrate release is achieved by the transition from the inward-facing occluded to the inward-facing open state (Figure 6C).
Figure 6. […] (A) Model of hCNT3 nucleo-pocket. […] (B) Model of hCNT1 nucleo-pocket. […] (C) Hypothetical alternating-access mechanism of vcCNT. A cartoon representation of the different conformational states along the transport cycle is depicted. The transport domain (including HP1, HP2, TM4b, and TM7b) and TM6 are shown as cylinders. […] The nucleo-pocket in the inward-occluded conformation (bottom right) is located between TM6 and TM4 and is marked with a green star. The inward-occluded conformation is derived from the crystal structures of vcCNT. All other conformations are purely hypothetical. The transition between inward- and outward-facing conformations has been proposed to be achieved by a rigid-body movement of the transport domain across TM6 ([Johnson et al., 2012]). Extracellular and intracellular gating likely involves slight rearrangements of HP2/TM4b and HP1/TM7b, respectively. […] See Figure 6—source data 1 for total charge source data. DOI: http://dx.doi.org/10.7554/eLife.03604.024 Figure 6—source data 1. Total charge data. Total charge transported (μC) was calculated as the area under the curve of the current trace after application of the indicated nucleoside to hCNT-expressing Xenopus oocytes. Each row represents a separate experiment done using a different oocyte. The ratios of the total charge transported for the nucleosides are shown in the last columns.
The genes coding for the three hCNTs and vcCNT were cloned into a pGEM-HE vector. Plasmids were linearized using either SphI or NheI, and mRNA was transcribed using the mMESSAGE mMACHINE T7 Transcription Kit (Ambion, Grand Island, NY). […]
The oocyte-recording chamber was gravity-perfused with ND96 buffer at a rate of 2 ml/min. Membrane currents were measured using an Oocyte Clamp (OC-725C; Warner Instruments, Hamden, CT). […]

Sequence of hCNT3 (375L/446V) (Q9HAS3 whole entry V375L/L446V, the tested form may be a part): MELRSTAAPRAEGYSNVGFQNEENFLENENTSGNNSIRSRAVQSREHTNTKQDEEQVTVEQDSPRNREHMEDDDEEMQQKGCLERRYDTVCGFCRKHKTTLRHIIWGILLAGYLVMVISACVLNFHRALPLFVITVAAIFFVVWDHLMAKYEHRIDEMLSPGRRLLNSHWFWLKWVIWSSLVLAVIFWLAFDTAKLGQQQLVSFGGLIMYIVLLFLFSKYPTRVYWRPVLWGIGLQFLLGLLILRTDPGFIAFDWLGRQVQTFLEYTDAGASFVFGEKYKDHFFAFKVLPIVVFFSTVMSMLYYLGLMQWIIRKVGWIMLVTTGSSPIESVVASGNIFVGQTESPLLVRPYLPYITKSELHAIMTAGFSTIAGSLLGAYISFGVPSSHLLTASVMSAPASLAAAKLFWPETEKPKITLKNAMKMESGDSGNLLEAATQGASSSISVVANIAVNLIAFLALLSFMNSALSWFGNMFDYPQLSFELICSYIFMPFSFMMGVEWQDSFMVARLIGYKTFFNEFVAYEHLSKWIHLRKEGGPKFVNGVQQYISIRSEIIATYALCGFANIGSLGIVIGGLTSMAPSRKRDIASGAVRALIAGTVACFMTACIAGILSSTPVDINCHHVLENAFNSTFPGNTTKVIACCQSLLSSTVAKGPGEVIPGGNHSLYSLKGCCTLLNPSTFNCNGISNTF

Take `Cc1cc2cn([C@@H]3O[C@H](CO)[C@@H](O)C3(F)F)c(=O)nc2[nH]1` [pyrrolo-gemcitabine]: the “Total charge transported, Mean” value on hCNT3 (200 μM nucleoside, hCNT3-expressing Xenopus oocytes, mean of Exp. 1-14) was 0.082 μC; at hCNT3 (375L/446V) (400 μM nucleoside, hCNT3 (375L/446V)-expressing Xenopus oocytes), 4.864 μC. Moreover, at hCNT3 (hCNT3-expressing oocytes, 200 μM), the “Na+ current on addition of nucleoside” value is “almost no effect”. Also, the “Qgem/Qpyr-gem, Mean” value is 96.071 on hCNT3 (ratio of total charge, 200 μM each, hCNT3, mean of Exp. 1-14) and 1.287 on hCNT3 (375L/446V) (ratio of total charge, 400 μM each, hCNT3 (375L/446V)). Further, the “transport by hCNT2” value at hCNT2 is recorded as “transported neither compound”.
